Consider 33 molecules from US8906904B2, “Alkoxy pyrazoles as soluble guanylate cyclase activators” (Boehringer Ingelheim International GmbH, priority 2012, dated 2014).

Molecules are shown by their SMILES.

For this experiment, the target named is T1, human soluble guanylate cyclase alpha 1 and beta 1 subunits (sGC) (Homo sapiens, UniProt Q02108+Q02153).
T1 construct: expressed in transfected cells; host or cells: Chinese hamster ovary (CHO) cells, stably transfected
T1 sequence (Q02108 1-690): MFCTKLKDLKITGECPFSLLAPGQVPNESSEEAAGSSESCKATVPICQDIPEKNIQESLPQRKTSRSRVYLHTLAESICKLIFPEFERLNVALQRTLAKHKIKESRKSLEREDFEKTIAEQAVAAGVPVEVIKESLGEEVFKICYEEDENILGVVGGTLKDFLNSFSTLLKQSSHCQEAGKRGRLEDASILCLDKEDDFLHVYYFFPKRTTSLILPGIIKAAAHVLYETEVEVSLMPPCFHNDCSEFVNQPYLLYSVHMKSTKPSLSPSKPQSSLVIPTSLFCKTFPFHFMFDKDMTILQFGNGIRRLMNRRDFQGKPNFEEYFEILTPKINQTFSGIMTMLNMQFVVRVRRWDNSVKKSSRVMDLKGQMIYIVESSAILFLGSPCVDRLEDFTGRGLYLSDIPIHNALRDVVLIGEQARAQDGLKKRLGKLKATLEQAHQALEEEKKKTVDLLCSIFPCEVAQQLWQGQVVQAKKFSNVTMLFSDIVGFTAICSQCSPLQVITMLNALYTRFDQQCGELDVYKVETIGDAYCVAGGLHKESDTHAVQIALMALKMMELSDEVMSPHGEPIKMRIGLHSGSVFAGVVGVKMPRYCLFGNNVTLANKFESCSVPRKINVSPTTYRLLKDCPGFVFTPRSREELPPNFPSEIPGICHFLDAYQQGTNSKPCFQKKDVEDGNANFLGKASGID
T1 sequence (Q02153 1-619): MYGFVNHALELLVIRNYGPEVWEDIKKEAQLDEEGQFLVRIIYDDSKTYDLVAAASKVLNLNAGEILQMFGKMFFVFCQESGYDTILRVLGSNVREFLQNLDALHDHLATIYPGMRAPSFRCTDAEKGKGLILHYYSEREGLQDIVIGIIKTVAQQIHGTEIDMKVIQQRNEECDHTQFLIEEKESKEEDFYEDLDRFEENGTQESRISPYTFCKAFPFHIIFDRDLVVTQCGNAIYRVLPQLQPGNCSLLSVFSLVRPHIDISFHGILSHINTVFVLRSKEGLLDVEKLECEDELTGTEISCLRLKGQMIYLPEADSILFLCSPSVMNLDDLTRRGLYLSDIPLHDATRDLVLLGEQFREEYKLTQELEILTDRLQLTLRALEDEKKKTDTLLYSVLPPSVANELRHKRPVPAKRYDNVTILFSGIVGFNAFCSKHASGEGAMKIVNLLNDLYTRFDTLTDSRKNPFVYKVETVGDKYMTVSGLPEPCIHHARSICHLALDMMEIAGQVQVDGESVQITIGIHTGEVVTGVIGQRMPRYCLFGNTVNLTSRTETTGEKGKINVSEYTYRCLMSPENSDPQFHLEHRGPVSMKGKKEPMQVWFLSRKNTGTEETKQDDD
As to the kind of experiment: sGC cellular activator assay (cGMP, HTRF). The note with it: CHO cells stably expressing human sGC alpha 1/beta 1, preincubated with 40 microM ODQ; cGMP readout; assay run with and without 50% human serum, Table 2 does not say which. In kind it is cell-based. Put shortly: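 First, CHO-sGC (human α1β1) cells get 1 h ODQ at 40 microM with IBMX and 0.1% BSA. Finally, cGMP is quantified by HTRF and EC50 computed.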
The term EC50 denotes the midpoint of the concentration-response curve. A lower EC50 goes with higher potency in that assay. The molecule `CCOc1c(C(=O)O)cnn1-c1cccc(-c2cccc(C)c2OCc2ccc3c(c2C)CCN(CC2COCCO2)C3)n1` (stereo in doubt) [Compound 185, 1-{6-[2-(2-(S)-1-[1,4]Dioxan-2-ylmethyl-5-methyl-1,2,3,4-tetrahydro-isoquinolin-6-ylmethoxy)-3-methyl-phenyl]-pyridin-2-yl}-5-ethoxy-1H-pyrazole-4-carboxylic acid] came in with an EC50 of 0.03 µM. Under `CCOc1c(C(=O)O)cnn1-c1cccc(-c2cccc(C)c2OCc2ccc3c(c2C)CCN(CC2(C)COC2)CC3)n1` [Compound 190] stands 0.023 µM; under `COc1c(C(=O)O)cnn1-c1cccc(-c2cccc(C)c2OCc2ccc3c(c2C)CCN(C[C@H]2CCCCO2)C3)n1` [Compound 199], 0.009 µM. For `COc1c(C(=O)O)cnn1-c1cccc(-c2cccc(C)c2OCc2ccc3c(c2F)CCN([C@@H]2CCOC2)C3)n1` [Compound 252] the value was 0.01 µM; for `COc1c(C(=O)O)cnn1-c1cccc(-c2cccc(C)c2OCc2cc(C)c3c(c2)CCN(CC2(C)COC2)C3)n1` [Compound 239], 0.0065 µM; for `COc1c(C(=O)O)cnn1-c1cccc(-c2cccc(C)c2OCc2ccc3c(c2C)CCN(C2CCOCC2)C3)n1` [Compound 27], 0.014 µM.

On to `COc1c(C(=O)O)cnn1-c1cccc(-c2cccc(C)c2OCc2ccc3c(c2F)CCN(C[C@H]2COCCO2)C3)n1` [Compound 234], for which it took 0.013 µM to reach a half-maximal effect (EC50). Under `COc1c(C(=O)O)cnn1-c1cccc(-c2cccc(C)c2OCc2ccc3c(c2Cl)CCN(C2CCC2)C3)n1` [Compound 20] stands 0.024 µM; under `COc1c(C(=O)O)cnn1-c1cccc(-c2ccccc2OCc2ccc3c(c2)CCN(C2CCOCC2)C3)n1` [Compound 209], 0.2 µM. For `COc1c(C(=O)O)cnn1-c1cccc(-c2cccc(C)c2OCc2ccc3c(c2C)CCN(C[C@@H]2CCCCO2)C3)n1` [Compound 198] the value was 0.0053 µM; for `CCOc1c(C(=O)O)cnn1-c1cccc(-c2cccc(C)c2OCc2cc(C)c3c(c2)CCN(CC2COCCO2)C3)n1` (stereo not drawn) [Compound 243], 0.016 µM; for `CCc1cc(COc2c(C)cccc2-c2cccc(-n3ncc(C(=O)O)c3OC)n2)cc2c1CN(C1CCOCC1)CC2` [Compound 248], 0.0042 µM.

In turn, `COc1c(C(=O)O)cnn1-c1cccc(-c2cc(C)cc(C)c2OCc2ccc3c(c2)CCN(C2CCOCC2)C3)n1` [Compound 181] returned an EC50 of 0.062 µM. For `CCc1cc(COc2c(C)cccc2-c2cccc(-n3ncc(C(=O)O)c3OC)n2)cc2c1CN(C1COC1)CC2` [Compound 249] the value was 0.0046 µM; for `CCOc1c(C(=O)O)cnn1-c1cccc(-c2cccc(C)c2OCc2ccc3c(c2C)CCN([C@@H]2CCOC2)CC3)n1` [Compound 227], 0.013 µM. Under `COc1c(C(=O)O)cnn1-c1cccc(-c2cccc(C)c2OCc2ccc3c(c2F)CCN(C[C@@H]2COCCO2)C3)n1` [Compound 231] stands 0.0046 µM.

On to `CCOc1c(C(=O)O)cnn1-c1cccc(-c2cccc(C)c2OCc2ccc3c(c2OC)CCN(C2COC2)C3)n1` [Compound 221], for which the EC50 was 0.21 µM. The molecule `COc1c(C(=O)O)cnn1-c1cccc(-c2cc(C)cc(C)c2OCc2ccc3c(c2C)CCN(C2CCOCC2)C3)n1` [Compound 180] returned an EC50 of 0.028 µM. Under `COc1ccc(OCc2ccc3c(c2C)CCN(C2CCOCC2)C3)c(-c2cccc(-n3ncc(C(=O)O)c3OC)n2)c1` [Compound 182] stands 0.37 µM; under `CCOc1c(C(=O)O)cnn1-c1cccc(-c2cccc(C)c2OCc2ccc3c(c2C)CCN(CC2(F)COC2)C3)n1` [Compound 208], 0.02 µM; under `COc1c(C(=O)O)cnn1-c1cccc(-c2cccc(C)c2OCc2ccc3c(c2C)CCN(C[C@H]2COCCO2)CC3)n1` [Compound 203], 0.0044 µM.

For `COc1c(C(=O)O)cnn1-c1cccc(-c2cccc(C)c2OCc2cc(C)c3c(c2)CCN(C2CCCOC2)C3)n1` (stereo not drawn) [Compound 237], the EC50 turned out to be 0.0049 µM.

For `CCOc1c(C(=O)O)cnn1-c1cccc(-c2cccc(C)c2OCc2cc(C)c3c(c2)CCN(C(C)COC)C3)n1` (stereo not drawn) [Compound 210], the 50% effective concentration (EC50) is 0.019 µM.

The molecule `COc1c(C(=O)O)cnn1-c1cccc(-c2cccc(C)c2OCc2ccc3c(c2)CCN(CC2CC(F)(F)C2)C3)n1` [Compound 26] yielded an EC50 of 0.005 µM.

Molecule `COc1c(C(=O)O)cnn1-c1cccc(-c2cccc(C)c2OCc2cc(C#N)c3c(c2)CCN(C2CCOCC2)C3)n1` [Compound 250] displayed an EC50 of 0.044 µM.

As for `COCC(C)N1CCc2cc(COc3c(C)cccc3-c3cccc(-n4ncc(C(=O)O)c4OC)n3)ccc2C1` (stereo not drawn) [Compound 23], the midpoint of the response, the EC50, lay at 0.052 µM. On to `COc1c(C(=O)O)cnn1-c1cccc(-c2cccc(C)c2OCc2ccc3c(c2C)CCN([C@@H]2CCOC2)CC3)n1` [Compound 207], for which the EC50 turned out to be 0.0092 µM.

For `CCOc1c(C(=O)O)cnn1-c1cccc(-c2cccc(C)c2OCc2cc(C)c3c(c2)CCN(CC2(C)COC2)C3)n1` [Compound 200], the response was half-maximal at 0.02 µM (EC50). Under `COc1c(C(=O)O)cnn1-c1cccc(-c2cccc(C)c2OCc2ccc3c(c2Cl)CCN(CC2(C)COC2)C3)n1` [Compound 19] stands 0.017 µM; under `COc1c(C(=O)O)cnn1-c1cccc(-c2cccc(C)c2OCc2ccc3c(c2)C(C)(C)CN(C2CCOC2)C3)n1` (stereo not drawn) [Compound 217], 0.035 µM. In the case of `COc1c(C(=O)O)cnn1-c1cccc(-c2cccc(C)c2OCc2ccc3c(c2C)CCN(C2CCOCC2)CC3)n1` [Compound 184], the EC50 amounted to 0.012 µM. `COc1c(C(=O)O)cnn1-c1cccc(-c2cccc(C)c2OCc2ccc3c(c2C)CCN(C2CCCOC2)C3)n1` (stereo not drawn) [Compound 238] registered a 50% effective concentration (EC50) of 0.0051 µM. For the molecule `CCOc1c(C(=O)O)cnn1-c1cccc(-c2cccc(C)c2OCc2ccc3c(c2C)CCN(C[C@H]2CCCCO2)C3)n1` [Compound 232], the concentration for a half-maximal effect (EC50) came out at 0.0095 µM.
